SMILES strings stand for the structures. Bounds are passed on as bounds.

The results in this text go back to PMC11445722, “Synthesis, Characterization, and Biological Evaluation of Novel [M(η^6-arene)2]^+ (M = Re, ^99mTc) Hosted Terpyridines and Copper Complexes Thereof” (Inorganic Chemistry, 2024).

Type in all cases: cell-based
For assay [1], the system named is A549 (human lung adenocarcinoma). The assay is described as follows: Cell viability (resazurin) assay, 2D model, A549. The settings on record: 48 h incubation, three independent experiments, read-out: IC50 ± SEM, A549.
Protocol: (§1) First, the cytotoxic activity of the compounds was investigated in different cancerous and noncancerous cell lines, namely, HT29 (human colon adenocarcinoma), A549 (human lung adenocarcinoma), and RPE-1 (human retinal epithelium). Cisplatin was used as a positive control. Cells were first incubated for 48 h with the complexes before cell viability was measured with a colorimetric resazurin assay.
(§2) Ce ll Culture: T he RPE-1 c ell l ine wa s cul ture d in DME M /F12 med iu m (G ibco) . T h e HT29 c ell line was
culture d in McCoy me dium (Gibco).
(§3) All ce ll line s were co mple me nted wit h 10% o f fetal calf ser um ( Gibco) and 100 U.mL-1 penicillin-
(§4) streptomycin mixture (Gibco) and maintained in a humidiﬁed atmosphere at 37 °C and 5% CO2.
(§5) Cell Viability Assay using a 2D Cellular Model: The cytotoxicity of the compounds was assessed by a
(§6) ﬂuorometric ce ll viability assay using Resazurin (Acros Organics) . Brieﬂy, ce l ls were s ee de d in tri pl ic ate
(§7) in 96-well plates at a 4×10^3 cells/well density in 100 μL Gibco McCoy’s 5A (1X) + GlutaMAX (Modiﬁed
(§8) Medium) with 10 % FBS and 1% Penicillin/Streptomycin. AŌer 24 h, cells were treated with increasing
(§9) concentraƟons of the compo unds and cisplaƟn. DiluƟons for the compounds were prepared f rom 10
(§10) mM stock in DMSO which were diluted to 100 - 0,01 μM with medium. AŌer 48 h of incubaƟon, the
(§11) medium was removed and 100 μL of complete medium containing resazurin (0.2 mg.mL-1 ﬁnal
(§12) concentraƟon) was adde d. AŌer 4 h of incubaƟon at 37 °C, the ﬂuoresc ence signal of the resoruﬁn
(§13) values were then calculated using the GraphPad Prism soŌware.
In assay [2] the test system is RPE-1 (human retinal epithelium). Nature of the assay: Cell viability (resazurin) assay, 2D model, RPE-1. Conditions: 48 h incubation, noncancerous cell line, three independent experiments, read-out: IC50 ± SEM, RPE-1.
Protocol: as §1, §2
culture d in McCoy me dium (Gibco).
as §3, §4, §5, §6, §7, §8, §9, §10, §11, §12, §13
Assay [3] concerns HT29 (human colon adenocarcinoma). Nature of the assay: Cell viability (resazurin) assay, 2D model, HT29. Conditions: 48 h incubation, three independent experiments, read-out: IC50 ± SEM, HT29.
Protocol: as §1, §2
culture d in McCoy me dium (Gibco).
as §3, §4, §5, §6, §7, §8, §9, §10, §11, §12, §13

With `N.[O]=[Re](=[O])(=[O])[OH]` [(NH4)[ReO4]], the concentration for half-maximal inhibition (IC50) in assay [1], in assay [2] and in assay [3] was more than 100 µM throughout.

Turning to `[Cl][Cu][Cl]` [CuCl2], the IC50 in assay [1], in assay [2] and in assay [3] was more than 100 µM in each case.

As to `N.N.[Cl][Pt][Cl]` [cisplatin], the IC50 in assay [1] turned out to be 10.9 ± 0.17 µM; in assay [2], 22.6 ± 2.74 µM; in assay [3], 7.84 ± 0.57 µM.
